According to the supplement of paper PMC10307832:

Tests used:
Experiment in all cases: relative viability (nuclei count vs DMSO), 5 days (fraction); higher = more cells survive
Crenolanib + Trametinib = compound: CC1(COc2ccc3c(c2)ncn3-c2ccc3cccc(N4CCC(N)CC4)c3n2)COC1 [Crenolanib] + CC(=O)Nc1cccc(-n2c(=O)n(C3CC3)c(=O)c3c(Nc4ccc(I)cc4F)n(C)c(=O)c(C)c32)c1 [Trametinib] (partner 0.02 µM)
Outline: (§1)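 Relative viability was taken as the ratio of nuclei in treated wells to nuclei in vehicle wells. Lung cancer cell lines in 1536-well plates received compounds by pin tool one day after seeding, either one drug alone or a fixed anchor-drug dose plus five library-drug doses (not always all listed) in √10 steps. Nuclei were counted on 4× images after 5 days of treatment, and values are medians of duplicate plates.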

Crenolanib + Pictilisib = compound: CC1(COc2ccc3c(c2)ncn3-c2ccc3cccc(N4CCC(N)CC4)c3n2)COC1 [Crenolanib] + CS(=O)(=O)N1CCN(Cc2cc3nc(-c4cccc5[nH]ncc45)nc(N4CCOCC4)c3s2)CC1 [Pictilisib] (partner 1 µM)
Outline: as §1

Crenolanib + AZD7762 = compound: CC1(COc2ccc3c(c2)ncn3-c2ccc3cccc(N4CCC(N)CC4)c3n2)COC1 [Crenolanib] + NC(=O)Nc1cc(-c2cccc(F)c2)sc1C(=O)N[C@H]1CCCNC1 [AZD7762] (partner 0.2 µM)
Outline: as §1

Tivantinib + Phenformin = compound: O=C1NC(=O)[C@@H](c2cn3c4c(cccc24)CCC3)[C@@H]1c1c[nH]c2ccccc12 [Tivantinib] + N=C(N)NC(=N)NCCc1ccccc1 [Phenformin] (partner 250 µM)
Outline: as §1

Cell Line | relative viability (Crenolanib + Trametinib; first compound 0.01 µM) | relative viability (Crenolanib + Trametinib; first compound 0.03162 µM) | relative viability (Crenolanib + Trametinib; first compound 0.1 µM) | relative viability (Crenolanib + Trametinib; first compound 0.3162 µM) | relative viability (Crenolanib + Trametinib; first compound 1 µM) | relative viability (Crenolanib + Pictilisib; first compound 0.01 µM) | relative viability (Crenolanib + Pictilisib; first compound 0.03162 µM) | relative viability (Crenolanib + Pictilisib; first compound 0.1 µM) | relative viability (Crenolanib + Pictilisib; first compound 0.3162 µM) | relative viability (Crenolanib + Pictilisib; first compound 1 µM) | relative viability (Crenolanib + AZD7762; first compound 0.01 µM) | relative viability (Crenolanib + AZD7762; first compound 0.03162 µM) | relative viability (Crenolanib + AZD7762; first compound 0.1 µM) | relative viability (Crenolanib + AZD7762; first compound 0.3162 µM) | relative viability (Crenolanib + AZD7762; first compound 1 µM) | relative viability (Tivantinib + Phenformin; first compound 0.01 µM) | relative viability (Tivantinib + Phenformin; first compound 0.03162 µM) | relative viability (Tivantinib + Phenformin; first compound 0.1 µM) | relative viability (Tivantinib + Phenformin; first compound 0.3162 µM)
PC-14 | 0.91 | 0.619 | 0.679 | 0.716 | 0.647 | 0.661 | 0.787 | 0.588 | 0.744 | 0.65 | 0.39 | 0.305 | 0.36 | 0.281 | 0.328 | 0.516 | 0.454 | 0.611 | 0.341
NCI-H1792 | 0.422 | 0.545 | 0.399 | 0.485 | 0.347 | 0.32 | 0.34 | 0.29 | 0.269 | 0.195 | 0.701 | 0.686 | 0.656 | 0.834 | 0.754 | 0.396 | 0.567 | 0.297 | 0.492
HCC-827 | 0.595 | 0.529 | 0.505 | 0.473 | 0.6 | 1.12 | 1.16 | 0.961 | 0.94 | 1.03 | 0.276 | 0.212 | 0.2 | 0.189 | 0.218 | 0.338 | 0.466 | 0.379 | 0.166
LC-2-ad | 1.05 | 0.901 | 0.916 | 0.97 | 0.894 | 0.5 | 0.446 | 0.434 | 0.465 | 0.375 | 0.892 | 0.898 | 0.777 | 0.908 | 0.821 | 0.563 | 0.491 | 0.595 | 0.541
NCI-H441 | 0.537 | 0.479 | 0.425 | 0.485 | 0.408 | 0.497 | 0.502 | 0.483 | 0.527 | 0.56 | 1.24 | 1.56 | 1.15 | 1.33 | 1.17 | 0.872 | 0.84 | 0.777 | 0.828
NCI-H322M | 0.515 | 0.516 | 0.488 | 0.525 | 0.609 | 0.519 | 0.499 | 0.527 | 0.517 | 0.493 | 0.589 | 0.52 | 0.555 | 0.544 | 0.695 | 0.753 | 0.708 | 0.754 | 
EPLC-272H | 0.307 | 0.299 | 0.283 | 0.326 | 0.277 |  | 0.327 | 0.318 | 0.255 | 0.338 | 0.207 | 0.238 | 0.376 | 0.289 | 0.251 | 0.248 | 0.294 | 0.296 | 0.0595
NCI-H2126 | 0.596 | 0.578 | 0.564 | 0.608 | 0.62 | 0.504 | 0.509 | 0.51 | 0.47 | 0.476 | 1.07 | 1.05 | 0.927 | 1.05 | 0.973 | 0.527 | 0.504 | 0.532 | 0.47
LCLC-103H | 0.686 | 0.643 | 0.651 | 0.692 | 0.667 | 0.64 | 0.58 | 0.596 | 0.58 | 0.565 | 0.758 | 0.761 | 0.714 | 0.759 | 0.702 | 0.327 | 0.312 | 0.378 | 0.374
NCI-H1975 | 0.344 | 0.316 | 0.313 | 0.304 | 0.359 | 0.271 | 0.307 | 0.247 | 0.283 | 0.214 | 0.741 | 0.732 | 0.629 | 0.639 | 0.712 | 0.398 | 0.421 | 0.403 | 0.357
NCI-H1793 | 0.349 | 0.333 | 0.363 | 0.472 | 0.458 | 0.302 | 0.315 | 0.322 | 0.312 | 0.385 | 0.549 | 0.794 | 0.538 | 0.366 | 0.645 | 0.347 | 0.388 | 0.371 | 0.213
NCI-H2085 |  | 0.571 | 0.549 | 0.51 | 0.554 | 0.45 | 0.412 | 0.481 | 0.469 | 0.5 |  | 0.983 | 0.997 | 0.972 | 1 | 0.774 | 0.639 | 0.699 | 0.519
PC-3 [JPC-3] | 0.758 |  | 0.632 | 0.623 | 0.585 | 0.736 | 0.635 | 0.746 | 0.695 | 0.703 | 0.761 |  | 0.832 | 0.78 | 0.752 | 0.459 | 0.494 | 0.506 | 0.355
NCI-H2087 | 0.234 | 0.227 | 0.207 | 0.207 | 0.193 | 0.804 | 0.918 | 0.665 | 0.761 | 0.861 | 1.33 | 1.18 | 1.39 | 1.6 | 1.34 | 0.446 | 0.456 | 0.473 | 0.472
NCI-H1755 | 0.754 | 0.707 | 0.734 | 0.885 | 0.75 | 0.423 | 0.408 | 0.397 | 0.399 | 0.393 | 0.423 | 0.468 | 0.362 | 0.529 | 0.484 | 0.591 | 0.591 | 0.589 | 0.666
EMC-BAC-2 | 0.905 |  | 0.893 | 0.937 | 0.799 | 0.552 | 0.523 | 0.492 | 0.578 | 0.495 | 1.1 |  | 1.1 | 1.25 | 1.07 | 0.566 | 0.453 | 0.528 | 0.528
NCI-H596 | 0.823 | 0.842 | 0.753 | 0.729 | 0.75 | 0.351 | 0.398 | 0.342 | 0.353 | 0.397 | 1.27 | 1.16 | 1.03 | 1.22 | 1.11 | 0.665 | 0.651 | 0.715 | 0.771
